System: moderate-to-severe chronic spontaneous urticaria (CSU)
Assay: Phase 2 CSU study: urticaria control test (UCT)
Assay type: in vivo, human
Parameters: key to UCT, Mean / UCT, Median / UCT change from baseline, Mean / UCT change from baseline, Median: UCT total = sum of 4 item scores; low = low disease control
Source text: The study comprises a 12 week, randomized, double-blind, placebo-controlled, multi-center, dose-ranging efficacy and safety phase, followed by a 40 week open label extension (OLE) phase (see FIG. 1). The study consists of three phases and an optional OLE phase. […] To this end, the UCT was proposed as a tertiary endpoint in this study. […] The dermatology life quality index (DLQI) was proposed as a tertiary endpoint in this study. […] Low scores indicate high disease activity and low disease control. The UCT total score is calculated by adding all 4 individual item scores. […] The recall period is the previous 4 weeks. Patients were to complete the UCT questionnaire during their site visit.

[1] = 400 mg BID, End of study, omalizumab-naïve population
[2] = 400 mg BID, End of study, prior omalizumab use incl. incomplete responders
[3] = 400 mg BID, Week 4, ITT population
[4] = 400 mg BID, Week 4, omalizumab-naïve population
[5] = 400 mg BID, Week 4, prior omalizumab use incl. incomplete responders
[6] = 400 mg BID, Week 8, ITT population
[7] = 400 mg BID, Week 8, omalizumab-naïve population
[8] = 400 mg BID, Week 8, prior omalizumab use incl. incomplete responders
[9] = 400 mg BID, Week 12, ITT population
[10] = 400 mg BID, Week 12, omalizumab-naïve population
[11] = 400 mg BID, Week 12, prior omalizumab use incl. incomplete responders
[12] = 400 mg QPM, End of study, omalizumab-naïve population
[13] = 400 mg QPM, End of study, prior omalizumab use incl. incomplete responders
[14] = 400 mg QPM, Week 4, ITT population
[15] = 400 mg QPM, Week 4, omalizumab-naïve population
[16] = 400 mg QPM, Week 4, prior omalizumab use incl. incomplete responders

**Q.** How did the “UCT change from baseline, Mean” value [1] turn out when CC(C)(C=C(C#N)C(=O)N1CCC[C@@H](n2nc(-c3ccc(Oc4ccccc4)cc3F)c3c(N)ncnc32)C1)N1CCN(C2COC2)CC1 [rilzabrutinib, (R)-2-[3-[4-amino-3-(2-fluoro-4-phenoxy-phenyl)pyrazolo[3,4-d]pyrimidin-1-yl]piperidine-1-carbonyl]-4-methyl-4-[4-(oxetan-3-yl)piperazin-1-yl]pent-2-enenitrile] was run?
**A.** 0.00

**Q.** And the “UCT change from baseline, Median” value [1]?
**A.** −2.00

**Q.** And the “UCT percent change from baseline, Mean” value [1]?
**A.** −21.27%

**Q.** And the “UCT percent change from baseline, Median” value [1]?
**A.** −57.14%

**Q.** And the “UCT, Median” value [1]?
**A.** 3.00

**Q.** What about the “UCT change from baseline, Median” value [2] of the same molecule?
**A.** 5.50

**Q.** What about the “UCT percent change from baseline, Mean” value [2] of the same molecule?
**A.** 4.33%

**Q.** What about the “UCT percent change from baseline, Median” value [2] of the same molecule?
**A.** 4.00%

**Q.** What about the “UCT, Mean” value [2] of the same molecule?
**A.** 2.67

**Q.** And the “UCT, Median” value [2]?
**A.** 3.00

**Q.** And the “UCT % Change difference for rilzabrutinib vs. placebo LS Mean (95% CI)” value (from here on “UCT % Change difference … (95% CI)”) [3]?
**A.** 96.74 (−24.75, 218.23) %

**Q.** And the “UCT % Change from baseline LS Mean (SE)” value [3]?
**A.** 236.29 (42.88) %

**Q.** What about the “UCT Change difference for rilzabrutinib vs. placebo LS Mean (95% CI)” value (from here on “UCT Change difference … (95% CI)”) [3] of the same molecule?
**A.** 0.94 (−0.87, 2.75)

**Q.** What about the “UCT Change from baseline LS Mean (SE)” value [3] of the same molecule?
**A.** 4.27 (0.65)

**Q.** What about the “UCT Post-baseline Mean (SD)” value [3] of the same molecule?
**A.** 8.56 (4.95)

**Q.** What about the “UCT % Change difference … (95% CI)” value [4] of the same molecule?
**A.** 120.19 (−1.20, 241.59) %

**Q.** And the “UCT % Change from baseline LS Mean (SE)” value [4]?
**A.** 263.00 (44.80) %

**Q.** And the “UCT Change difference … (95% CI)” value [4]?
**A.** 1.27 (−0.56, 3.11)

**Q.** And the “UCT Change from baseline LS Mean (SE)” value [4]?
**A.** 4.51 (0.66)

**Q.** What about the “UCT Post-baseline Mean (SD)” value [4] of the same molecule?
**A.** 8.85 (4.53)

**Q.** And the “UCT change from baseline, Mean” value [4]?
**A.** 4.21

**Q.** And the “UCT change from baseline, Median” value [4]?
**A.** 4.00

**Q.** What about the “UCT percent change from baseline, Mean” value [4] of the same molecule?
**A.** 220.19%

**Q.** And the “UCT percent change from baseline, Median” value [4]?
**A.** 75.00%

**Q.** What about the “UCT, Mean” value [4] of the same molecule?
**A.** 8.85

**Q.** And the “UCT, Median” value [4]?
**A.** 9.00

**Q.** What about the “UCT change from baseline, Mean” value [5] of the same molecule?
**A.** 4.33

**Q.** And the “UCT change from baseline, Median” value [5]?
**A.** 4.00

**Q.** And the “UCT percent change from baseline, Mean” value [5]?
**A.** 151.39%

**Q.** And the “UCT percent change from baseline, Median” value [5]?
**A.** 137.50%

**Q.** And the “UCT, Median” value [5]?
**A.** 5.50

**Q.** And the “UCT % Change difference … (95% CI)” value [6]?
**A.** 139.58 (18.06, 261.09) %

**Q.** And the “UCT % Change from baseline LS Mean (SE)” value [6]?
**A.** 304.12 (43.11) %

**Q.** And the “UCT Change difference … (95% CI)” value [6]?
**A.** 1.01 (−0.90, 2.92)

**Q.** And the “UCT Change from baseline LS Mean (SE)” value [6]?
**A.** 5.38 (0.68)

**Q.** And the “UCT Post-baseline Mean (SD)” value [6]?
**A.** 10.00 (4.71)

**Q.** And the “UCT % Change difference … (95% CI)” value [7]?
**A.** 158.55 (28.05, 289.04) %

**Q.** What about the “UCT % Change from baseline LS Mean (SE)” value [7] of the same molecule?
**A.** 328.12 (46.96) %

**Q.** What about the “UCT Change difference … (95% CI)” value [7] of the same molecule?
**A.** 1.14 (−0.74, 3.02)

**Q.** And the “UCT Change from baseline LS Mean (SE)” value [7]?
**A.** 5.61 (0.69)

**Q.** And the “UCT Post-baseline Mean (SD)” value [7]?
**A.** 10.12 (4.20)

**Q.** What about the “UCT change from baseline, Mean” value [7] of the same molecule?
**A.** 5.70

**Q.** And the “UCT change from baseline, Median” value [7]?
**A.** 5.00

**Q.** What about the “UCT percent change from baseline, Mean” value [7] of the same molecule?
**A.** 290.62%

**Q.** What about the “UCT percent change from baseline, Median” value [7] of the same molecule?
**A.** 114.29%

**Q.** And the “UCT change from baseline, Median” value [8]?
**A.** 11.00

**Q.** What about the “UCT percent change from baseline, Mean” value [8] of the same molecule?
**A.** 248.33%

**Q.** What about the “UCT percent change from baseline, Median” value [8] of the same molecule?
**A.** 275.00%

**Q.** What about the “UCT, Mean” value [8] of the same molecule?
**A.** 9.20

**Q.** What about the “UCT, Median” value [8] of the same molecule?
**A.** 14.00

**Q.** And the “UCT % Change difference … (95% CI)” value [9]?
**A.** 109.34 (−24.34, 243.02) %

**Q.** What about the “UCT % Change from baseline LS Mean (SE)” value [9] of the same molecule?
**A.** 309.12 (47.68) %

**Q.** And the “UCT Change difference … (95% CI)” value [9]?
**A.** 0.71 (−1.27, 2.68)

**Q.** What about the “UCT Change from baseline LS Mean (SE)” value [9] of the same molecule?
**A.** 5.44 (0.71)

**Q.** And the “UCT Post-baseline Mean (SD)” value [9]?
**A.** 9.92 (4.69)

**Q.** And the “UCT % Change difference … (95% CI)” value [10]?
**A.** 146.79 (5.56, 288.02) %

**Q.** And the “UCT % Change from baseline LS Mean (SE)” value [10]?
**A.** 344.03 (53.11) %

**Q.** And the “UCT Change difference … (95% CI)” value [10]?
**A.** 0.80 (−1.21, 2.81)

**Q.** What about the “UCT Change from baseline LS Mean (SE)” value [10] of the same molecule?
**A.** 5.52 (0.74)

**Q.** What about the “UCT Post-baseline Mean (SD)” value [10] of the same molecule?
**A.** 10.03 (4.29)

**Q.** What about the “UCT change from baseline, Mean” value [10] of the same molecule?
**A.** 5.65

**Q.** What about the “UCT change from baseline, Median” value [10] of the same molecule?
**A.** 4.00

**Q.** What about the “UCT percent change from baseline, Mean” value [10] of the same molecule?
**A.** 301.53%

**Q.** What about the “UCT percent change from baseline, Median” value [10] of the same molecule?
**A.** 130.95%

**Q.** And the “UCT change from baseline, Median” value [11]?
**A.** 8.00

**Q.** What about the “UCT percent change from baseline, Mean” value [11] of the same molecule?
**A.** 246.67%

**Q.** What about the “UCT percent change from baseline, Median” value [11] of the same molecule?
**A.** 266.67%

**Q.** And the “UCT, Mean” value [11]?
**A.** 9.20

**Q.** What about the “UCT change from baseline, Mean” value [12] of the same molecule?
**A.** 8.50

**Q.** What about the “UCT change from baseline, Median” value [12] of the same molecule?
**A.** 8.50

**Q.** What about the “UCT percent change from baseline, Mean” value [12] of the same molecule?
**A.** 283.33%

**Q.** What about the “UCT percent change from baseline, Median” value [12] of the same molecule?
**A.** 283.33%

**Q.** What about the “UCT change from baseline, Mean” value [13] of the same molecule?
**A.** 8.00

**Q.** And the “UCT change from baseline, Median” value [13]?
**A.** 8.00

**Q.** What about the “UCT percent change from baseline, Mean” value [13] of the same molecule?
**A.** 3.00%

**Q.** What about the “UCT percent change from baseline, Median” value [13] of the same molecule?
**A.** 3.00%

**Q.** And the “UCT, Mean” value [13]?
**A.** 5.00

**Q.** What about the “UCT, Median” value [13] of the same molecule?
**A.** 5.00

**Q.** And the “UCT % Change difference … (95% CI)” value [14]?
**A.** −44.03 (−169.40, 81.34) %

**Q.** What about the “UCT % Change from baseline LS Mean (SE)” value [14] of the same molecule?
**A.** 95.52 (42.85) %

**Q.** What about the “UCT Change difference … (95% CI)” value [14] of the same molecule?
**A.** −0.89 (−2.79, 1.00)

**Q.** What about the “UCT Change from baseline LS Mean (SE)” value [14] of the same molecule?
**A.** 2.44 (0.68)

**Q.** What about the “UCT Post-baseline Mean (SD)” value [14] of the same molecule?
**A.** 6.40 (3.11)

**Q.** And the “UCT % Change difference … (95% CI)” value [15]?
**A.** −48.50 (−174.55, 77.55) %

**Q.** What about the “UCT % Change from baseline LS Mean (SE)” value [15] of the same molecule?
**A.** 94.30 (43.68) %

**Q.** And the “UCT Change difference … (95% CI)” value [15]?
**A.** −0.88 (−2.74, 0.99)

**Q.** And the “UCT Change from baseline LS Mean (SE)” value [15]?
**A.** 2.36 (0.66)

**Q.** And the “UCT Post-baseline Mean (SD)” value [15]?
**A.** 6.35 (3.14)

**Q.** What about the “UCT change from baseline, Mean” value [15] of the same molecule?
**A.** 2.27

**Q.** What about the “UCT change from baseline, Median” value [15] of the same molecule?
**A.** 2.00

**Q.** And the “UCT percent change from baseline, Mean” value [15]?
**A.** 102.47%

**Q.** And the “UCT percent change from baseline, Median” value [15]?
**A.** 45.00%

**Q.** And the “UCT, Median” value [15]?
**A.** 6.00

**Q.** And the “UCT change from baseline, Mean” value [16]?
**A.** 3.00

**Q.** What about the “UCT change from baseline, Median” value [16] of the same molecule?
**A.** 3.00

**Q.** And the “UCT percent change from baseline, Mean” value [16]?
**A.** 60.00%

**Q.** And the “UCT percent change from baseline, Median” value [16]?
**A.** 60.00%

**Q.** And the “UCT, Mean” value [16]?
**A.** 8.00

**Q.** And the “UCT, Median” value [16]?
**A.** 8.00
